Laboratory results reported in the supplement of paper PMC10307832.

Assays:
Assay in all cases: relative viability (nuclei count vs DMSO), 5 days (fraction); higher = more cells survive
GW-2580 + Lapatinib = compound: COC1=CC=C(C=C1)COC2=C(C=C(C=C2)CC3=CN=C(N=C3N)N)OC [GW-2580] + CS(=O)(=O)CCNCc1ccc(-c2ccc3ncnc(Nc4ccc(OCc5cccc(F)c5)c(Cl)c4)c3c2)o1 [Lapatinib] (partner 2 µM)
Summary of the method: (§1)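 Each reported value is a median over duplicate plates. It expresses relative viability: treated-well nuclei count divided by vehicle-well nuclei count. Lung cancer cell lines in 1536-well plates were dosed by pin tool a day after seeding, alone with one drug or with a fixed anchor-drug dose plus five library-drug doses (not always all listed) in √10 steps, and nuclei were counted after 5 days.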

Fedratinib + Lapatinib = compound: Cc1cnc(Nc2ccc(OCCN3CCCC3)cc2)nc1Nc1cccc(S(=O)(=O)NC(C)(C)C)c1 [Fedratinib] + CS(=O)(=O)CCNCc1ccc(-c2ccc3ncnc(Nc4ccc(OCc5cccc(F)c5)c(Cl)c4)c3c2)o1 [Lapatinib] (partner 2 µM)
Summary of the method: as §1

Fedratinib + Luminespib = compound: Cc1cnc(Nc2ccc(OCCN3CCCC3)cc2)nc1Nc1cccc(S(=O)(=O)NC(C)(C)C)c1 [Fedratinib] + CCNC(=O)c1noc(-c2cc(C(C)C)c(O)cc2O)c1-c1ccc(CN2CCOCC2)cc1 [Luminespib] (partner 0.01 µM)
Summary of the method: as §1

Fedratinib + Alpelisib = compound: Cc1cnc(Nc2ccc(OCCN3CCCC3)cc2)nc1Nc1cccc(S(=O)(=O)NC(C)(C)C)c1 [Fedratinib] + Cc1nc(NC(=O)N2CCC[C@H]2C(N)=O)sc1-c1ccnc(C(C)(C)C(F)(F)F)c1 [Alpelisib] (partner 2 µM)
Summary of the method: as §1

Fedratinib + Phenformin = compound: Cc1cnc(Nc2ccc(OCCN3CCCC3)cc2)nc1Nc1cccc(S(=O)(=O)NC(C)(C)C)c1 [Fedratinib] + N=C(N)NC(=N)NCCc1ccccc1 [Phenformin] (partner 250 µM)
Summary of the method: as §1

GW-2580 + Pictilisib = compound: COC1=CC=C(C=C1)COC2=C(C=C(C=C2)CC3=CN=C(N=C3N)N)OC [GW-2580] + CS(=O)(=O)N1CCN(Cc2cc3nc(-c4cccc5[nH]ncc45)nc(N4CCOCC4)c3s2)CC1 [Pictilisib] (partner 1 µM)
Summary of the method: as §1

| Cell Line | relative viability (GW-2580 + Lapatinib; first compound 0.08 µM) | relative viability (GW-2580 + Lapatinib; first compound 0.8 µM) | relative viability (GW-2580 + Lapatinib; first compound 2.53 µM) | relative viability (GW-2580 + Lapatinib; first compound 8 µM) | relative viability (Fedratinib + Lapatinib; first compound 0.1 µM) | relative viability (Fedratinib + Lapatinib; first compound 0.3162 µM) | relative viability (Fedratinib + Lapatinib; first compound 1 µM) | relative viability (Fedratinib + Luminespib; first compound 0.1 µM) | relative viability (Fedratinib + Luminespib; first compound 0.3162 µM) | relative viability (Fedratinib + Luminespib; first compound 1 µM) | relative viability (Fedratinib + Alpelisib; first compound 0.1 µM) | relative viability (Fedratinib + Alpelisib; first compound 0.3162 µM) | relative viability (Fedratinib + Alpelisib; first compound 1 µM) | relative viability (Fedratinib + Phenformin; first compound 0.1 µM) | relative viability (Fedratinib + Phenformin; first compound 0.3162 µM) | relative viability (Fedratinib + Phenformin; first compound 1 µM) | relative viability (GW-2580 + Pictilisib; first compound 0.08 µM) | relative viability (GW-2580 + Pictilisib; first compound 0.8 µM) | relative viability (GW-2580 + Pictilisib; first compound 2.53 µM) | relative viability (GW-2580 + Pictilisib; first compound 8 µM) |
| --- | --- | --- | --- | --- | --- | --- | --- | --- | --- | --- | --- | --- | --- | --- | --- | --- | --- | --- | --- | --- |
| NCI-H661 | 0.448 | 0.647 | 0.378 | 0.459 | 0.471 | 0.496 | 0.44 | 0.925 | 0.969 | 0.846 | 0.835 | 0.452 | 0.629 | 0.269 | 0.287 | 0.304 | 0.343 | 0.377 | 0.321 | 0.361 |
| NCI-H1793 | 0.803 | 0.74 | 0.571 | 0.459 | 0.628 | 0.61 | 0.311 | 0.174 | 0.163 | 0.204 | 0.746 | 0.683 | 0.627 | 0.27 | 0.178 | 0.312 | 0.312 | 0.33 | 0.216 | 0.254 |
| NCI-H1734 | 1.17 | 1 | 1.01 | 1.01 | 1.18 | 1.1 | 0.183 | 0.179 | 0.205 | 0.185 | 0.627 | 0.654 | 0.62 | 0.382 | 0.385 | 0.353 | 0.491 | 0.478 | 0.431 | 0.436 |
| LXF-289 | 0.941 | 0.946 | 0.815 | 0.829 | 0.894 | 0.883 | 0.737 | 0.741 | 0.665 | 0.747 | 1.06 | 0.997 | 1.05 | 0.503 | 0.488 | 0.517 | 0.82 | 0.849 | 0.653 | 0.672 |
| H3255 | 0.216 | 0.265 | 0.234 | 0.249 | 0.216 | 0.231 | 0.218 | 0.913 | 0.932 | 0.59 | 0.458 | 0.715 | 0.652 | 0.377 | 0.362 | 0.418 | 0.534 | 0.471 | 0.419 | 0.464 |
| 201T | 1.09 | 1.11 | 0.983 | 1.06 | 1.01 | 0.944 | 0.976 | 1 | 1.06 | 1.02 | 1.04 | 0.974 | 0.99 | 0.429 | 0.478 | 0.414 | 0.601 | 0.701 | 0.67 | 0.68 |
| NCI-H2126 | 0.767 | 0.835 | 0.679 | 0.833 | 0.761 | 0.772 | 0.689 | 0.929 | 0.962 | 0.834 | 0.745 | 0.719 | 0.786 | 0.532 | 0.569 | 0.498 | 0.483 | 0.497 | 0.448 | 0.452 |
| HOP-62 | 0.856 | 0.986 | 0.997 | 1.12 | 0.969 | 0.88 | 0.904 | 0.958 | 0.924 | 0.908 | 0.941 | 0.759 | 0.89 | 0.682 | 0.601 | 0.631 | 0.909 | 0.72 | 0.63 | 0.736 |
| CAL-12T | 0.601 | 0.662 | 0.545 | 0.735 | 0.688 | 0.698 | 0.607 | 0.175 | 0.617 | 0.361 | 1.13 | 1.16 | 1.06 | 0.597 | 0.611 | 0.526 | 0.45 | 0.739 | 0.341 | 0.513 |
| NCI-H520 | 0.973 | 0.926 | 0.849 | 0.931 | 0.86 | 0.717 | 0.18 | 0.265 | 0.194 | 0.23 | 0.912 | 0.845 | 0.805 | 0.431 | 0.564 | 0.399 | 0.35 | 0.287 | 0.279 | 0.332 |
| NCI-H1755 | 1.12 | 1.28 | 0.94 | 0.96 | 1.02 | 1 | 0.942 | 0.367 | 0.595 | 0.381 | 0.969 | 0.886 | 0.82 | 0.561 | 0.593 | 0.518 | 0.489 | 0.461 | 0.321 | 0.372 |
| NCI-H2023 | 0.899 | 0.964 | 0.633 | 0.797 | 0.897 | 0.75 | 0.083 | 0.578 | 0.581 | 0.632 | 0.578 | 0.629 | 0.56 | 0.431 | 0.463 | 0.456 | 0.241 | 0.257 | 0.217 | 0.216 |
| NCI-H2009 | 0.966 | 0.894 | 0.91 | 0.857 | 0.915 | 1.02 | 0.171 | 1.04 | 1.09 | 0.943 | 1.21 | 1.2 | 1.1 | 0.334 | 0.486 | 0.419 | 0.924 | 0.982 | 0.652 | 0.809 |
